Experiments:
Type in all cases: cell-based
C18-1/EREBP1 = experiment: Northern analysis of mRNA accumulation in cultured tobacco cells; details: 0.1 and 1 mM, approximately 2.5 h
Experimental: (§1) FIG. 2. Time course of SA-induced gene expression. Northern analysis of representative differential display genes following treatment of cultured tobacco cells with SA for the indicated time (in hours, except lanes 2-4, which refer to 10, 20, and 30 min.). Twenty micrograms of total RNA was loaded per lane. Blots were hybridized with ddPCR fragments indicated at right or with the β-ATPase gene as a loading control probe. Autoradiogram exposure times were optimized for each gene. […] Labels on left indicate response class.
(§2) FIG. 4. Specificity of induction among SA analogs and other signalling compounds. Northern analysis of representative differential display genes following treatment of tobacco cells with 100 μM or 1 mM (left and right side of triangles, respectively) of the following chemicals for 2-2.5 hr: salicylic acid (SA, lanes 4 and 5), acetylSA (ASA, lanes 6 and 7), benzoic acid (BA, lanes 8 and 9), 4-hydroxybenzoic (4HBA, lanes 10 and 11), thiamine (thia, lanes 12 and 13), methyljasmonate (MJ, lanes 14 and 15), abscisic acid (ABA, lanes 16 and 17), or 2,4-dichlorophenoxyacetic acid (2,4-D, lanes 18 and 19). Control treatments are H2O (H, lane 1), 1% ethanol (E, solvent concentration in MJ treatments, lane 2), or 1% DMSO (D, solvent concentration in 2,4D treatments, lane 3). Blots were hybridized with ddPCR fragments indicated at right or with the β-ATPase geneas a loading control probe. Autoradiogram exposure times were optimized for each gene. […] Labels on left indicate response class.
(§3) FIG. 5. Dose response of C18-1 and G8-1 to a range of chemicals. Northern analysis of tobacco cell cultures with eight concentrations of SA, ASA, BA, 4HBA, Thia, MJ, ABA, 2,4-D, or H2O for 2-2.5 hr. Concentrations were 0.1, 1, 3, 10, 30, 100, 300 μM or […], as indicated.
(§4) FIG. 6. […] Graphic representation of mRNA accumulation of G8-1 ( ), C18se -1 (♦), and IEGT (o) in response to a 2-2.5 hr incubation of cultured tobacco cells with a range of SA concentrations. RNA gel blots were quantitated by phosphorimaging analysis and normalized relative to the β-ATPase gene loading control (not shown).
(§5) Differential display technology (Liang, P. and Pardee, A. B., Science 257: 967-971, 1992) was used to identify genes activated in the presence of SA, CHX and both. Therefore the absence or presence of SA, induction at 3 timepoints of SA-treatment, 2 different concentrations of SA and the effect of addition of CHX were measured. Seven treatments in total were performed. Treatment of tobacco BY-2 suspension cells and leaves and differential display PCR reactions were performed as described (Horvath and Chua (1996), Plant Mol. Biol. 31, 1061-1072).
The kinetics of induction were examined in detail through time course experiments for representative clones of each class (FIG. 2).
(§6) The specificity for induction by SA was tested by treating tobacco cells with a range of SA analogs and plant signalling compounds at 0.1 and 1 mM for approximately 2.5 h. […] Several genes, including those for proteinase inhibitors and lipoxygenase (Hildmann, T. et al., Plant Cell 4: 1157-1170, 1992; Melan, M. A. et al., Plant Physiol. 101: 441-450, 1993; Xu, D. et al., Plant Mol. Biol. 22: 573-588, 1993) are known to be under dual regulation by MJ and ABA.
A dose-response curve was made for SA. Therefore tobacco cells were treated with SA in a range of concentrations from 0.1 μM to 2 mM.

C6-2 = experiment: as above; details: 0.1 and 1 mM, approximately 2.5 h
Experimental: (§7) FIG. 2. Time course of SA-induced gene expression. Northern analysis of representative differential display genes following treatment of cultured tobacco cells with SA for the indicated time (in hours, except lanes 2-4, which refer to 10, 20, and 30 min.). Twenty micrograms of total RNA was loaded per lane. Blots were hybridized with ddPCR fragments indicated at right or with the β-ATPase gene as a loading control probe. Autoradiogram exposure times were optimized for each gene. The signal for C18-1 was enhanced by using the full length cDNA as probe. Labels on left indicate response class.
(§8) FIG. 4. Specificity of induction among SA analogs and other signalling compounds. Northern analysis of representative differential display genes following treatment of tobacco cells with 100 μM or 1 mM (left and right side of triangles, respectively) of the following chemicals for 2-2.5 hr: salicylic acid (SA, lanes 4 and 5), acetylSA (ASA, lanes 6 and 7), benzoic acid (BA, lanes 8 and 9), 4-hydroxybenzoic (4HBA, lanes 10 and 11), thiamine (thia, lanes 12 and 13), methyljasmonate (MJ, lanes 14 and 15), abscisic acid (ABA, lanes 16 and 17), or 2,4-dichlorophenoxyacetic acid (2,4-D, lanes 18 and 19). Control treatments are H2O (H, lane 1), 1% ethanol (E, solvent concentration in MJ treatments, lane 2), or 1% DMSO (D, solvent concentration in 2,4D treatments, lane 3). Blots were hybridized with ddPCR fragments indicated at right or with the β-ATPase geneas a loading control probe. Autoradiogram exposure times were optimized for each gene. The signal for C18-1 was enhanced by using the full length cDNA as probe. Labels on left indicate response class.
as §5
(§9) The specificity for induction by SA was tested by treating tobacco cells with a range of SA analogs and plant signalling compounds at 0.1 and 1 mM for approximately 2.5 h. […] Among the SA-analogs, acetyl-SA (ASA, aspirin), benzoic acid (BA) and 4-hydroxybenzoic acid (4HBA), responses generally reflected the ability of the analog to substitute for SA in other cellular responses (Yalpani, N. et al., Plant Cell 3: 809-818, 1991, Yang, Y. and Klessig, D. F., Proc. Natl. Acad. Sci. 93, 14972-14977, 1996). […] Several genes, including those for proteinase inhibitors and lipoxygenase (Hildmann, T. et al., Plant Cell 4: 1157-1170, 1992; Melan, M. A. et al., Plant Physiol. 101: 441-450, 1993; Xu, D. et al., Plant Mol. Biol. 22: 573-588, 1993) are known to be under dual regulation by MJ and ABA. A similar mode of regulation may be in effect with C14-1b. the auxin 2,4-D induced several genes including C18-1/EREBP1 and C6-2.

[1] = system: early SA-induced genes identified by differential display; experiment: Northern analysis of differential display genes in cultured tobacco cells; details: 0.1 and 1 mM, approximately 2.5 h
Experimental: (§10) FIG. 1. […] Northern analysis of genes identified by differential display. Gel-purified DNA fragments produced by ddPCR were either used directly for random-primed labeling and probing of Northern filters (e.g. C7-1, C6-1, and G9-2) or first subcloned and released by restriction digest. Each lane contains 1 μg of poly(A) mRNA from cultured tobacco cells treated with (1) H2O, 4 hr; (2) 200 μM SA, 4 hr; (3) 71 μM CHX, 5 hr; (4) 71 μM CHX, 5 hr plus 200 μM SA after 1 hr (4 hr total); (5) 20 μM SA, 2 hr; (7) 200 μM SA, 8 hr.
as §2, §5, §6

C14-1b = experiment: Northern analysis of mRNA accumulation in cultured tobacco cells; details: 0.1 and 1 mM, approximately 2.5 h
Experimental: as §7, §8, §5, §9

G3-2 = experiment: as above; details: 0.1 and 1 mM, approximately 2.5 h
Experimental: (§11) FIG. 1. Four classes of SA-induced early genes. Northern analysis of genes identified by differential display. Gel-purified DNA fragments produced by ddPCR were either used directly for random-primed labeling and probing of Northern filters (e.g. C7-1, C6-1, and G9-2) or first subcloned and released by restriction digest. Each lane contains 1 μg of poly(A) mRNA from cultured tobacco cells treated with (1) H2O, 4 hr; (2) 200 μM SA, 4 hr; (3) 71 μM CHX, 5 hr; (4) 71 μM CHX, 5 hr plus 200 μM SA after 1 hr (4 hr total); (5) 20 μM SA, 2 hr; (7) 200 μM SA, 8 hr. One blot was sequentially hybridized with the G1-1 fragment and the β-ATPase gene as a loading control probe. response classes (I-IV) are indicated on the left of the autoradiograms.
as §7, §8, §5, §9

G8-1 = experiment: as above; details: for G8-1 induction at 0.1 mM versus 1 mM: 0.1 and 1 mM, approximately 2.5 h
Experimental: as §10, §1, §2, §3, §4, §5
The specificity for induction by SA was tested by treating tobacco cells with a range of SA analogs and plant signalling compounds at 0.1 and 1 mM for approximately 2.5 h.

Class I genes = experiment: Northern analysis of poly(A) mRNA from treated tobacco cells; details: SA at 2, 4 or 8 h; 71 μM CHX 5 hrs; CHX + 200 μM SA
Experimental: as §11, §5
(§12) Fiftytwo were recovered for testing on poly(A)+Northern blots loaded with mRNA derived from cells from each of the treatments.

class II genes = experiment: as above; details: SA at 2, 4, 8 h; 71 μM CHX 5 hrs; CHX + 200 μM SA
Experimental: as §11, §5, §12

[2] = system: class IV genes (G3-2 and C14-1b); experiment: as above
Experimental: as §11, §5, §12

[3] = 71 μM CHX 5 hrs + 200 μM SA after 1 hr
[4] = SA at 2, 4, 8 h, 71 μM CHX 5 hrs

SMILES: O=C(O)COc1ccc(Cl)cc1Cl [2,4-D, 2,4-dichlorophenoxyacetic acid]
- induction of C18-1/EREBP1 (C18-1/EREBP1): induced
- induction of C6-2 (C6-2): induced

SMILES: O=C(O)c1ccc(O)cc1 [4HBA, 4-hydroxybenzoic acid]
- induction of the genes tested [1]: failed to induce all genes but C6-2

SMILES: CC1=CC(=O)CC(C)(C)[C@@]1(O)/C=C/C(C)=C\C(=O)O [ABA, abscisic acid]
- induction of C14-1b (C14-1b): could be induced

SMILES: CC(=O)Oc1ccccc1C(=O)O [ASA, acetyl-SA]
- C18-1/EREBP1 induction at 0.1 mM versus 1 mM (C18-1/EREBP1): greater induction at 1mM
- C6-2 induction at 0.1 mM versus 1 mM (C6-2): greater induction at 1mM
- induction of the genes tested [1]: induced all genes to similar levels as SA
- G3-2 induction at 0.1 mM versus 1 mM (G3-2): equal or greater induction at 0.1 mM versus 1 mM
- G8-1 induction at 0.1 mM versus 1 mM (G8-1): equal or greater induction at 0.1 mM versus 1 mM

SMILES: O=C(O)c1ccccc1 [BA, benzoic acid]
- C18-1/EREBP1 induction at 0.1 mM versus 1 mM (C18-1/EREBP1): greater induction at 1mM
- C6-2 induction at 0.1 mM versus 1 mM (C6-2): greater induction at 1mM
- induction of the genes tested [1]: also induced the expression
- G3-2 induction at 0.1 mM versus 1 mM (G3-2): equal or greater induction at 0.1 mM versus 1 mM
- G8-1 induction at 0.1 mM versus 1 mM (G8-1): equal or greater induction at 0.1 mM versus 1 mM

SMILES: C[C@@H]1C[C@@H]([C@H](O)CC2CC(=O)NC(=O)C2)C(=O)[C@@H](C)C1 [CHX, cycloheximide]
- mRNA induction of Class I genes (Class I genes): some induction
- mRNA induction of class II genes (class II genes): also induced expression
- effect of CHX on induction of class IV genes by SA [2, 3]: blocked the induction
- mRNA induction of class IV genes [2, 4]: fail to induce
- effect of presence of CHX on induction of G8-1 by SA (G8-1; [3]): did not significantly alter
- mRNA induction of G8-1 (class III) (G8-1; [4]): did not induce

SMILES: CC/C=C\CC1C(=O)CCC1CC(=O)OC (centres unmarked) [MJ, Methyljasmonate]
- effectiveness as inducer of C18-1/EREBP1 among compounds tested (C18-1/EREBP1): most effective inducer
- induction of C18-1/EREBP1 (C18-1/EREBP1): able to induce expression
- effectiveness as inducer of C14-1b among compounds tested (C14-1b): most effective inducer
- induction of C14-1b (C14-1b): able to induce expression
- induction of G3-2 (G3-2): able to induce expression

SMILES: Cc1ncc(C[n+]2csc(CCO)c2C)c(N)n1 [thiamine]
- induction of the genes tested [1]: did not produce a response from any of the genes tested
